According to patent publication US20100331297A1, “MODULATION OF PROTEIN TRAFFICKING” (FOLDRX PHARMACEUTICALS, INC., priority 2007, published 2010):

Tests used:
ΔF508 CFTR [1] = biological target: T1, ΔF508 CFTR (Homo sapiens, UniProt P13569, DEL508-508); test: Corrector activity, YFP halide (iodide) quenching assay in FRT cells expressing ΔF508 CFTR; assay type: cell-based; parameters: expressed in transfected cells; host or cells: Fischer rat thyroid (FRT) cells; conditions: FRT cells ΔF508 CFTR/YFP, 24 hours with compound at 37° C., forskolin and genistein; read-out: Corrector EC50
Experimental: Fisher rat thyroid (FRT) cells stably expressing ΔF508 CFTR and a halide-sensitive variant of yellow fluorescent protein (YFP) were seeded into microtiter plates and allowed to grow for 24 hours at 37° C. and 5% CO2. See Pedemonte et al., J. Clin. Invest. […] Compounds in dimethylsulfoxide (DMSO) solution were pre-diluted into cell culture medium, the medium was removed from cells, and then fresh medium containing the compounds was applied. The cells were incubated for a further 24 hours at 37° C. and 5% CO2.
Activity of CFTR was assayed by removing the medium, washing the cell monolayer with phosphate-buffered saline solution (PBS), and then applying PBS containing forskolin and genistein. After 30 min incubation at 37° C., the plates were placed in a fluorescence plate reader equipped with a reagent injector.
Corrector activity was calculated as follows. Normalized endpoint fluorescence was calculated by dividing the endpoint fluorescence after iodide injection by the initial fluorescence reading and multiplication by 100. Corrector EC50 values were calculated from the activity vs. concentration data using a 4-parameter log fit. The bottom of the curve was constrained to zero activity (DMSO control) while the slope, EC50, and top of the curve were fitted to the data. The EC50 was determined as the concentration that corresponds to the inflection point of the fitted curve.

ΔF508 CFTR [2] = biological target: T1, ΔF508 CFTR; test: Potentiator activity, YFP halide (iodide) quenching assay in FRT cells expressing ΔF508 CFTR, 27° C. pre-incubation; assay type: cell-based; parameters: expressed in transfected cells; host or cells: Fischer rat thyroid (FRT) cells; Potentiator activity compared to the DMSO control (no EC50 obtained): scale not given here; conditions: for EC50: FRT cells ΔF508 CFTR/YFP, 24 hours at 27° C., compound with forskolin 30 min
Experimental: Fisher rat thyroid (FRT) cells stably expressing ΔF508 CFTR and a halide-sensitive variant of yellow fluorescent protein (YFP) were seeded into microtiter plates and allowed to grow for 24 hours at 37° C. and 5% CO2, as described above. The medium was replaced with fresh medium and the cells were incubated for a further 24 hours at 27° C. and 5% CO2 to increase the level of mutant CFTR at the cell surface.
Compounds in DMSO solution were pre-diluted into phosphate-buffered saline solution (PBS) containing forskolin. Activity of CFTR was assayed by removing the medium, washing the cell monolayer with PBS, and then applying the compounds diluted in PBS containing forskolin. After 30 min of incubation at 37° C., the plates were placed in a fluorescence plate reader equipped with a reagent injector. After measuring an initial fluorescence value, iodide-containing buffer was injected and the decrease in fluorescence was followed at excitation and emission wavelengths of 485 and 530 nm, respectively.
Potentiator activity was calculated as follows. Normalized endpoint fluorescence was calculated by dividing the endpoint fluorescence after iodide injection by the initial fluorescence reading and multiplication by 100. Potentiator EC50 values were calculated by the same method as corrector EC50 values.

T1 sequence (P13569 with tags, fused parts or gaps DEL508-508): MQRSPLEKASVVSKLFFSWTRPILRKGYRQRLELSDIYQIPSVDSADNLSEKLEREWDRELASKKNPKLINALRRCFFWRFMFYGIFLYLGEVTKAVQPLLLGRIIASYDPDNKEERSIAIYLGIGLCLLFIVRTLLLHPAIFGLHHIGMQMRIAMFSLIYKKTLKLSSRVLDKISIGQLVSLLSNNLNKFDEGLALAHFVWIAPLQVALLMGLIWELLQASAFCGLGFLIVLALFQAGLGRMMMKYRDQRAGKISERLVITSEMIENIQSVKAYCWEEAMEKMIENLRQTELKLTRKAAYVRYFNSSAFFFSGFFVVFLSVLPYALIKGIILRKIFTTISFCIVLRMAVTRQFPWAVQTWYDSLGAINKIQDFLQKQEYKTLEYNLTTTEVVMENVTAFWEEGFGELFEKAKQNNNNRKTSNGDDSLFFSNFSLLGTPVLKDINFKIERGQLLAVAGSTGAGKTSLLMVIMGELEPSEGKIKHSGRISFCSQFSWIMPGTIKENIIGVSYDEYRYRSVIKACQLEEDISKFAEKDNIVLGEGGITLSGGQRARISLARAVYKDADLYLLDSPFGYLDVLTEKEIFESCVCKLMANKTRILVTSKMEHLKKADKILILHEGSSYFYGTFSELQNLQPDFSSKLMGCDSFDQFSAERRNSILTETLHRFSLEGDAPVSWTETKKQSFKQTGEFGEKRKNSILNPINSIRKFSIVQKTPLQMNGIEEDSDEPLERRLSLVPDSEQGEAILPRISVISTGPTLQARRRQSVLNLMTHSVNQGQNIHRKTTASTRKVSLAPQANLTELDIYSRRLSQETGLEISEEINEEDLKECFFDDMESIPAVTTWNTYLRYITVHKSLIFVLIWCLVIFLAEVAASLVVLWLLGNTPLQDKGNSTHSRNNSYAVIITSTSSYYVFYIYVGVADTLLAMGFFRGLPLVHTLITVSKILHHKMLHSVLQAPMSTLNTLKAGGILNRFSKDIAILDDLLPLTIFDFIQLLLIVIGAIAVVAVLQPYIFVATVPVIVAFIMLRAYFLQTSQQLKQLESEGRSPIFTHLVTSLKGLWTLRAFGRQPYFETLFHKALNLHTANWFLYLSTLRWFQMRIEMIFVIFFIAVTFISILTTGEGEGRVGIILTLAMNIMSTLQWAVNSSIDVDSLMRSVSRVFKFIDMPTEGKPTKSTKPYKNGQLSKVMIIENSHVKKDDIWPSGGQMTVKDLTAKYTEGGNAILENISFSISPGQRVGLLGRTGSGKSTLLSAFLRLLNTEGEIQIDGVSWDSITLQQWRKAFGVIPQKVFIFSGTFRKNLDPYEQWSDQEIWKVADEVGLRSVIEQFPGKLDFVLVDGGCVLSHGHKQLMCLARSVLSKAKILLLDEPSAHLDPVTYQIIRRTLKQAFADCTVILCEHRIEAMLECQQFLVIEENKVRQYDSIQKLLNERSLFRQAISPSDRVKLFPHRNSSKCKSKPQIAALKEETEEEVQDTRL

| Compound | EC50 (ΔF508 CFTR [1]) [µM] | EC50 (ΔF508 CFTR [2]) [µM] | Potentiator activity compared to the DMSO control (no EC50 obtained) (ΔF508 CFTR [2]; at 12 μm) |
| --- | --- | --- | --- |
| CC(C)(C)n1nc(Oc2cccc3c2CCCC3)c2c(N)ncnc21 [compound 209] | > 15 | > 15 |  |
| CN1CC(n2nc(-c3ccc(Cl)cc3)c3c(N)ncnc32)C1 [Compound No. 296, 3-(4-Chloro-phenyl)-1-(1-methyl-azetidin-3-yl)-1H-pyrazolo[3,4-d]pyrimidin-4-ylamine] | > 15 | > 15 |  |
| CCNC(=O)N1CC(n2nc(Sc3cccc(Cl)c3)c3c(N)ncnc32)C1 [Compound No. 346, 3-[4-Amino-3-(3-chloro-phenylsulfanyl)-pyrazolo[3,4-d]pyrimidin-1-yl]-azetidine-1-carboxylic acid ethylamide] | > 15 | > 15 |  |
| CC(C)(C)n1nc(Oc2ccc3c(c2)CCC3)c2c(N)ncnc21 [compound 210] | 5 to 10 | < 2 |  |
| Nc1ncnc2c1c(-c1ccc(Cl)cc1)nn2C1CCNCC1 [compound 412] | > 15 | > 15 |  |
| CCOC(=O)N1CC(n2nc(Sc3cccc(Cl)c3)c3c(N)ncnc32)C1 [Compound No. 345, 3-[4-Amino-3-(3-chloro-phenylsulfanyl)-pyrazolo[3,4-d]pyrimidin-1-yl]-azetidine-1-carboxylic acid ethyl ester] | > 15 | 2 to 5 |  |
| CCNC(=O)N1CCC(n2nc(-c3ccc(Cl)cc3)c3c(N)ncnc32)CC1 [compound 319] | > 15 | > 15 |  |
| CCn1nc([S+]([O-])c2cccc(O)c2)c2c(N)ncnc21 (stereo not shown) [compound 285] | > 15 | > 15 |  |
| CC(C)C(=O)Nc1ncnc2c1c(-c1ccc(Cl)cc1)nn2C(C)(C)C [compound 265] | 5 to 10 | < 2 |  |
| CC(=O)Nc1ncnc2c1c(-c1ccc(F)cc1)nn2C(C)(C)C [compound 118, N-[1-tert-Butyl-3-(4-fluoro-phenyl)-1H-pyrazolo[3,4-d]pyrimidin-4-yl]-acetamide] | > 15 | > 15 |  |
| Nc1ncnc2c1c(-c1ccc(Cl)cc1)nn2C1CNC1 [compound 411] | > 15 | > 15 |  |
| CCOC(=O)N1CC(n2nc(-c3ccc(Cl)cc3)c3c(N)ncnc32)C1 [compound 270] | > 15 | > 15 |  |
| Cc1ccc(-c2nn(C(C)(C)C)c3ncnc(NC(=O)c4ccc(F)cc4)c23)cc1 [compound 94] | 5 to 10 | > 15 |  |
| Nc1ncnc2c1c(Oc1cccc(Cl)c1)nn2C1CCC1 [compound 228] | > 15 | < 2 |  |
| CCn1nc(Sc2cccc3ccccc23)c2c(N)ncnc21 [compound 207] | > 15 | < 2 |  |
| CCn1nc([S+]([O-])c2cccc(F)c2)c2c(N)ncnc21 (stereo not shown) [compound 238] | > 15 | > 15 |  |
| COC(=O)Nc1ncnc2c1c(-c1ccc(Cl)cc1)nn2C(C)(C)C [Compound No. 294, [1-tert-Butyl-3-(4-chloro-phenyl)-1H-pyrazolo[3,4-d]pyrimidin-4-yl]-carbamic acid methyl ester] | > 15 | > 15 |  |
| Nc1ncnc2c1c(-c1ccc(Cl)cc1)nn2-c1nc2ccccc2o1 [compound 277] | > 15 | > 15 |  |
| CC(C)(C)n1nc(O)c2c(N)ncnc21 [compound 325, 4-amino-1-tert-butyl-1H-pyrazolo[3,4-d]pyrimidin-3-ol] | > 15 | > 15 |  |
| CC(C)(C)n1nc(-c2ccc3c(c2)OCO3)c2c(N)ncnc21 [compound 131] | > 15 | 2 to 5 |  |
| CC(C)(C)n1nc(Oc2cccc3ccccc23)c2c(N)ncnc21 [compound 198, 1-tert-Butyl-3-(naphthalen-1-yloxy)-1H-pyrazolo[3,4-d]pyrimidin-4-ylamine] | > 15 |  | # (at 12 μm) |
| CC(C)(C)OC(=O)N1CC(n2nc(Sc3ccccc3)c3c(N)ncnc32)C1 [Compound No. 320, 3-(4-Amino-3-phenylsulfanyl-pyrazolo[3,4-d]pyrimidin-1-yl)-azetidine-1-carboxylic acid tert-butyl ester] | > 15 | 2 to 5 |  |
| CC(C)n1cc(-c2ccc(Cl)cc2)c2c(N)ncnc21 [compound 315] | < 2 | 2 to 5 |  |
| CC(C)Cn1nc(-c2ccc(Cl)cc2)c2c(N)ncnc21 [compound 252] | 2 to 5 | 5 to 10 |  |
| Nc1ncnc2c1c(-c1ccc(Cl)cc1)nn2C(=O)OCc1ccccc1 [compound 188] | 5 to 10 | > 15 |  |

| Compound | EC50 (ΔF508 CFTR [1]) [µM] | EC50 (ΔF508 CFTR [2]) [µM] | Potentiator activity compared to the DMSO control (no EC50 obtained) (ΔF508 CFTR [2]; at 12 μm) |
| --- | --- | --- | --- |
| CC(C)(C)n1cc(-c2ccc(Cl)cc2)c2c(NC(=O)C3CCCC3)ncnc21 [compound 321] | < 2 | < 2 |  |
| CN(C)C(=O)Nc1ncnc2c1c(-c1ccc(Cl)cc1)nn2C(C)(C)C [compound 269] | > 15 | > 15 |  |
| Nc1ncnc2c1c(Oc1cccc(Cl)c1)nn2CC1CC1 [compound 278] | > 15 | < 2 |  |
| CCn1nc(Sc2ccc(Cl)cc2)c2c(N)ncnc21 [compound 216] | > 15 | < 2 |  |
| Nc1ncnc2c1c(-c1ccc(Cl)cc1)nn2-c1ccc([N+](=O)[O-])cn1 [compound 288] | > 15 | > 15 |  |
| CC(C)(C)n1nc(Oc2cccc3cccnc23)c2c(N)ncnc21 [compound 195] | 5 to 10 | > 15 |  |
| Nc1ncnc2c1c(Oc1cccc(Cl)c1)nn2CC(F)F [compound 263] | > 15 | > 15 |  |
| CCNC(=O)N1CC(n2nc(-c3ccc(Cl)cc3)c3c(N)ncnc32)C1 [Compound No. 275, 3-[4-Amino-3-(4-chloro-phenyl)-pyrazolo[3,4-d]pyrimidin-1-yl]azetidine-1-carboxylic acid ethylamide] | > 15 | > 15 |  |
| CCn1cc(-c2ccc(Cl)cc2)c2c(NC(=O)NC(C)C)ncnc21 [compound 328] | > 15 | > 15 |  |
| Cc1ccccc1Oc1nn(C(C)(C)C)c2ncnc(N)c12 [compound 185] | > 15 | < 2 |  |
| CCn1cc(-c2ccc(Cl)cc2)c2c(N(C)C(C)=O)ncnc21 [compound 282] | > 15 | > 15 |  |
| Cc1cc(C)cc(Oc2nn(C(C)(C)C)c3ncnc(N)c23)c1 [compound 180] | 5 to 10 | < 2 |  |
| CCn1nc(Sc2ccccc2F)c2c(N)ncnc21 [compound 217] | > 15 | > 15 |  |
| CC(C)(C)n1nc([S+]([O-])c2ccccn2)c2c(N)ncnc21 (stereo not shown) [compound 329] | > 15 | > 15 |  |
| CCn1nc(Nc2cccc3ccccc23)c2c(N)ncnc21 [compound 308] | 5 to 10 | > 15 |  |
| Nc1ncnc2c1c(Oc1cccc(Cl)c1)nn2CC1CCC1 [compound 256] | > 15 | < 2 |  |
| CCn1cc(-c2ccc(Cl)cc2)c2c(NC(=O)C(C)C)ncnc21 [compound 336] | < 2 | 5 to 10 |  |
| CC(C)(C)n1nc(-c2cccc(Oc3ccccc3)c2)c2c(N)ncnc21 [compound 132] | > 15 | > 15 |  |
| CC(C)(C)OC(=O)N1CC(n2nc(Cc3cccc4ccccc34)c3c(N)ncnc32)C1 [Compound No. 297, 3-(4-Amino-3-naphthalen-1-ylmethyl-pyrazolo[3,4-d]pyrimidin-1-yl)-azetidine-1-carboxylic acid tert-butyl ester] | > 15 | 2 to 5 |  |
| Nc1ncnc2c1c(-c1ccc(Cl)cc1)nn2CC(F)F [compound 202] | 5 to 10 | > 15 |  |
| Nc1ncnc2c1c(-c1ccc(Cl)cc1)nn2[C@H]1CCOC1 [compound 318] | > 15 | > 15 |  |
| CCn1cc(-c2ccc(Cl)cc2)c2c(NC(=O)C(C)(C)C)ncnc21 [compound 322] | 2 to 5 | 2 to 5 |  |
| CC(C)(C)n1nc(Oc2ccc(C#N)cc2)c2c(N)ncnc21 [compound 205] | > 15 | < 2 |  |
| CC(C)(C)n1nc(Oc2cccc(F)c2F)c2c(N)ncnc21 [compound 178] | > 15 | 2 to 5 |  |
| CCn1nc(Sc2cccc(C(F)(F)F)c2)c2c(N)ncnc21 [compound 323] | > 15 | < 2 |  |
